From patent US9326512B2, “Synergistic combination of a flurochloridone compound and zinc pyrithione for dry film protection” (Rohm and Haas Company, priority 2013, dated 2016)

System: Chlorella sp. ATCC 7516
Test: Algal efficacy testing of dry paint films (modified ASTM 5589, 6-well plates)
Format: cell-based
Conditions: 3 weeks; for Total conc (lowest total biocide concentration in paint passing ≧75% inhibition): pass level ≧75% algal growth inhibition, dry paint film coupon
Method: These paints were then diluted with an antimicrobial free acrylic/silicone based paint and mixed to prepare targeted concentrations of antimicrobial compounds for the testing. The total biocides concentrations tested were 125, 250, 500, 1000, 2000 and 5000 ppm. After biocides addition or dilution, the paints were mixed 90 seconds with the horse power shaker (AXEL 75M3372/Agitateur SO-10MI) until uniformity was achieved. Paints containing different antimicrobial compounds at the same levels were mixed together in order to obtain the desired ratio of antimicrobial compounds. After one day, the paints were applied to Schleicher & Schuell filter paper at 280 μm wft and dried for 3 days at room temperature avoiding direct exposure to sunlight. Square discs (1.6 cm×1.6 cm) were cut out from each panel and were used as the substrate for algal efficacy tests. This sample size allowed for an agar border when the sample disc was placed into the well of the test plate.
Algal efficacy was tested according to modified ASTM 5589 which is a standard accelerated test method for determining resistance of various coatings (including paints) to algal defacement. To accommodate for high-throughput screening, this method was scaled down from petri dishes to 6-well plates. Bold Modified Basal Freshwater Nutrient Solution was used as growth medium. A single coated filter paper coupon was placed with a pair of sterile forceps at the center of the agar plug (on top) with the painted surface facing upwards.
Each well that contains a tested coupon was inoculated with 1750 μl of algal suspensions (1×10^6 cfu/ml) making sure that the whole surface (paint film as well as the agar surrounding it) was evenly covered. The plates were incubated at room temp (21° C.-25° C.) with cyclic exposure to light and dark phases, for a period of three weeks.
At the end of the three week incubation period, the samples were scored for percent inhibition regarding color intensity compared to the blank sample.
The Synergy Index calculation was performed as follows.
The SI is calculated based on F. C.
SI value of <1 in the formula indicates a synergism of the blended biocides exists.
The minimal targeted inhibition was set at 75%, meaning a coupon with at least 75% algal growth inhibition was considered as a pass.

Compound | Total conc (lowest total biocide concentration in paint passing ≧75% inhibition) | inhibition at 5000 ppm (504 h, total conc 5000 ppm in paint) | % inhibition (total conc 500 ppm in paint)
O=C1C(Cl)C(CCl)CN1c1cccc(C(F)(F)F)c1 (stereo not shown) [Flurochloridone, 3-chloro-4-(chloromethyl)-1-[3-(trifluoromethyl)phenyl]-2-pyrrolidinone] | 5000 ppm | 85% | 
[O-][n+]1ccccc1[S][Zn][S]c1cccc[n+]1[O-] [ZnPT, bis(2-pyridylthio)zinc 1,1′-dioxide] | 500 ppm |  | 95%
